Reference: paper PMC9930818, “2-((1H-Benzo[d]imidazol-2-yl)amino)benzo[d]thiazole-6-sulphonamides: a class of carbonic anhydrase II and VII-selective inhibitors” (Journal of Enzyme Inhibition and Medicinal Chemistry, 2023)
Where two headings read alike, the source gives them in different places.

What was measured:
Assay in all cases: stopped-flow CO2 hydration assay
Type in all cases: biochemical
hCA I = molecular target: T1, hCA I (Homo sapiens, UniProt P00915)
T1 construct: gene CA1; recombinant, obtained in-house as reported earlier; cytosolic isoform
Description: stopped-flow CO2 hydration assay on hCA I

hCA II [1] = molecular target: T2, hCA II (Homo sapiens, UniProt P00918)
T2 construct: gene CA2; recombinant, obtained in-house as reported earlier; cytosolic isoform
Description: stopped-flow CO2 hydration assay on hCA II

hCA IV [2] = molecular target: T3, hCA IV (Homo sapiens, UniProt P22748)
T3 construct: gene CA4; recombinant, obtained in-house as reported earlier
Description: stopped-flow CO2 hydration assay on hCA IV

hCA VII [3] = molecular target: T4, hCA VII (Homo sapiens, UniProt P43166)
T4 construct: gene CA7; recombinant, obtained in-house as reported earlier; cytosolic isoform
Description: stopped-flow CO2 hydration assay on hCA VII

hCA II [4] = molecular target: T2, hCA II; details: read-out: KI (nM)^a / hCA I
hCA VII [5] = molecular target: T4, hCA VII; details: read-out: KI (nM)^a / hCA I
hCA IV [6] = molecular target: T3, hCA IV; details: read-out: KI (nM)^a / hCA I

T3 sequence (P22748 19-284): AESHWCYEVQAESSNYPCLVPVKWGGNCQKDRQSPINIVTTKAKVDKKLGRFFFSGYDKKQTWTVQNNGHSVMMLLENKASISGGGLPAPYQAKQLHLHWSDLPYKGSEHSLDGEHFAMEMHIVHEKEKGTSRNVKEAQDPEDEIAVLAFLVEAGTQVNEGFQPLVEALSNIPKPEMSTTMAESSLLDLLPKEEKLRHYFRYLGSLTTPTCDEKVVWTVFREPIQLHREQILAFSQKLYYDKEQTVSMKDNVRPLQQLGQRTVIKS
T4 sequence (P43166 whole entry, canonical isoform): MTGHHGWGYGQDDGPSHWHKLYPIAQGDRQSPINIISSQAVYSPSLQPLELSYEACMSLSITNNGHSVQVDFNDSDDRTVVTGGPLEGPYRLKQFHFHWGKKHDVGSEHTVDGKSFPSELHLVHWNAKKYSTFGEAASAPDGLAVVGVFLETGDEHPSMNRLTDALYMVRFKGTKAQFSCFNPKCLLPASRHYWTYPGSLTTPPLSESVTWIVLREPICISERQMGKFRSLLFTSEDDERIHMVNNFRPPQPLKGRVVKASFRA
T1 sequence (P00915 2-261): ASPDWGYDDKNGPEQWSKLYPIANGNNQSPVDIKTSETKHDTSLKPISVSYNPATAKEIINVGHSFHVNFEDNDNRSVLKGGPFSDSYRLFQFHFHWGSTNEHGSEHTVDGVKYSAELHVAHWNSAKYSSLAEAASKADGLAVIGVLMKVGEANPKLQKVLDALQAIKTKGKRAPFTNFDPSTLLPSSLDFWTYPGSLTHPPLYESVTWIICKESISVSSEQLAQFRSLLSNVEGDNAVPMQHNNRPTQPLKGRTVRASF

| Ki (hCA I) | Ki (hCA II [1]) | Ki (hCA IV [2]) | Ki (hCA VII [3]) | Ki (hCA II [4]) | Ki (hCA VII [5]) | Ki (hCA IV [6]) | Compound |
| --- | --- | --- | --- | --- | --- | --- | --- |
| 422 nM | 37.6 nM | > 100000 nM | 56.3 nM |  |  |  | NS(=O)(=O)c1ccc2nc(NC3=NCCN3)sc2c1 [6a, 2-((4,5-Dihydro-1H-imidazol-2-yl)amino)benzo[d]thiazole-6-sulphonamide] |
| 568 nM | 48.1 nM | > 100000 nM | 37.4 nM |  |  |  | CC1CN=C(Nc2nc3ccc(S(N)(=O)=O)cc3s2)N1 (stereo not shown) [6b, 2-((5-Methyl-4,5-dihydro-1H-imidazol-2-yl)amino)benzo[d]thiazole-6-sulphonamide] |
| 7590 nM | 65.6 nM | > 100000 nM | 82.5 nM |  |  |  | NS(=O)(=O)c1ccc2nc(NC3=NC4CCCCC4N3)sc2c1 (stereo not shown) [6c, 2-((3a,4,5,6,7,7a-hexahydro-1H-benzo[d]imidazol-2-yl)amino)benzo[d]thiazole-6-sulphonamide] |
| 4930 nM | 84 nM | > 100000 nM | 66.9 nM |  |  |  | NS(=O)(=O)c1ccc2nc(Nc3nc4ccccc4[nH]3)sc2c1 [7a, 2-((1H-benzo[d]imidazol-2-yl)amino)benzo[d]thiazole-6-sulphonamide] |
| 8100 nM | 375 nM | > 100000 nM | 452 nM |  |  |  | NS(=O)(=O)c1ccc2nc(Nc3nc4ccc(C(F)(F)F)cc4[nH]3)sc2c1 [7b, 2-((6-(Trifluoromethyl)-1H-benzo[d]imidazol-2-yl)amino)benzo[d]thiazole-6-sulphonamide] |
| 9530 nM | 578 nM | > 100000 nM | 694 nM |  |  |  | NS(=O)(=O)c1ccc2nc(Nc3nc4ccc(Cl)cc4[nH]3)sc2c1 [7c, 2-((6-Chloro-1H-benzo[d]imidazol-2-yl)amino)benzo[d]thiazole-6-sulphonamide] |
| > 100000 nM |  |  |  | > 100000 nM | > 100000 nM | > 100000 nM | O=S(=O)(NC1=NCCN1)c1ccc2nc(NC3=NCCN3)sc2c1 [9a, N-(4,5-Dihydro-1H-imidazol-2-yl)-2-((4,5-dihydro-1H-imidazol-2-yl)amino)benzo[d]thiazole-6-sulphonamide] |
| > 100000 nM |  |  |  | > 100000 nM | > 100000 nM | > 100000 nM | CC1CN=C(Nc2nc3ccc(S(=O)(=O)NC4=NCC(C)N4)cc3s2)N1 (stereo not shown) [9b] |
| > 100000 nM |  |  |  | > 100000 nM | > 100000 nM | > 100000 nM | O=S(=O)(NC1=NC2CCCCC2N1)c1ccc2nc(NC3=NC4CCCCC4N3)sc2c1 (stereo not shown) [9c, N-(3a,4,5,6,7,7a-hexahydro-1H-benzo[d]imidazol-2-yl)-2-((3a,4,5,6,7,7a-hexahydro-1H-benzo[d]imidazol-2-yl)amino)benzo[d]thiazole-6-sulphonamide] |
| > 100000 nM |  |  |  | > 100000 nM | > 100000 nM | > 100000 nM | O=S(=O)(Nc1nc2ccccc2[nH]1)c1ccc2nc(Nc3nc4ccccc4[nH]3)sc2c1 [9d] |
